ChEMBL document CHEMBL3763119, “Metal-based biologically active azoles and β-lactams derived from sulfa drugs” (Bioorg Med Chem, 2016)
One block for each molecule: values may come before it.

Key:
Pseudomonas aeruginosa [1] = test: Antibacterial activity against Pseudomonas aeruginosa at 10 ug/ml by disc diffusion method; format: functional; conditions: read-out: DIZ
Proteus sp. [2] = test: Antibacterial activity against Proteus sp. at 10 ug/ml by disc diffusion method; format: functional; conditions: Proteus sp. (in: enterobacteria); read-out: DIZ
[3] = Solubility of the compound in ethanol; format: physicochemical
Escherichia coli [4] = test: Antibacterial activity against Escherichia coli at 50 ug/ml by disc diffusion method; format: functional; conditions: read-out: DIZ
Proteus sp. [5] = test: Antibacterial activity against Proteus sp. at 50 ug/ml by disc diffusion method; format: functional; conditions: Proteus sp. (in: enterobacteria); read-out: DIZ
Pseudomonas aeruginosa [6] = test: Antibacterial activity against Pseudomonas aeruginosa at 1 ug/ml by disc diffusion method; format: functional; conditions: read-out: DIZ
Escherichia coli [7] = test: Antibacterial activity against Escherichia coli at 100 ug/ml by disc diffusion method; format: functional; conditions: read-out: DIZ
Escherichia coli [8] = test: Antibacterial activity against Escherichia coli at 1 ug/ml by disc diffusion method; format: functional; conditions: read-out: DIZ
Pseudomonas aeruginosa [9] = test: Antibacterial activity against Pseudomonas aeruginosa at 100 ug/ml by disc diffusion method; format: functional; conditions: read-out: DIZ
Pseudomonas aeruginosa [10] = test: Antibacterial activity against Pseudomonas aeruginosa at 50 ug/ml by disc diffusion method; format: functional; conditions: read-out: DIZ
[11] = Solubility of the compound in dioxane; format: physicochemical
Proteus sp. [12] = test: Antibacterial activity against Proteus sp. at 1 ug/ml by disc diffusion method; format: functional; conditions: Proteus sp. (in: enterobacteria); read-out: DIZ
Escherichia coli [13] = test: Antibacterial activity against Escherichia coli at 10 ug/ml by disc diffusion method; format: functional; conditions: read-out: DIZ
[14] = Solubility of the compound in THF; format: physicochemical
Staphylococcus aureus [15] = test: Antibacterial activity against Staphylococcus aureus at 10 ug/ml by disc diffusion method; format: functional; conditions: read-out: DIZ
Proteus sp. [16] = test: Antibacterial activity against Proteus sp. at 100 ug/ml by disc diffusion method; format: functional; conditions: Proteus sp. (in: enterobacteria); read-out: DIZ
Staphylococcus aureus [17] = test: Antibacterial activity against Staphylococcus aureus at 100 ug/ml by disc diffusion method; format: functional; conditions: read-out: DIZ
Staphylococcus aureus [18] = test: Antibacterial activity against Staphylococcus aureus at 1 ug/ml by disc diffusion method; format: functional; conditions: read-out: DIZ
Staphylococcus aureus [19] = test: Antibacterial activity against Staphylococcus aureus at 50 ug/ml by disc diffusion method; format: functional; conditions: read-out: DIZ
Pseudomonas aeruginosa [20] = test: Antibacterial activity against Pseudomonas aeruginosa at 30 ug/ml by disc diffusion method; format: functional; conditions: read-out: DIZ
Escherichia coli [21] = test: Antibacterial activity against Escherichia coli at 30 ug/ml by disc diffusion method; format: functional; conditions: read-out: DIZ
Staphylococcus aureus [22] = test: Antibacterial activity against Staphylococcus aureus at 30 ug/ml by disc diffusion method; format: functional; conditions: read-out: DIZ
Proteus sp. [23] = test: Antibacterial activity against Proteus sp. at 30 ug/ml by disc diffusion method; format: functional; conditions: Proteus sp. (in: enterobacteria); read-out: DIZ
Escherichia coli [24] = test: Antibacterial activity against Escherichia coli at 15 ug/ml by disc diffusion method; format: functional; conditions: read-out: DIZ
Staphylococcus aureus [25] = test: Antibacterial activity against Staphylococcus aureus at 15 ug/ml by disc diffusion method; format: functional; conditions: read-out: DIZ
Pseudomonas aeruginosa [26] = test: Antibacterial activity against Pseudomonas aeruginosa at 5 ug/ml by disc diffusion method; conditions: read-out: DIZ
Escherichia coli [27] = test: Antibacterial activity against Escherichia coli at 5 ug/ml by disc diffusion method; conditions: read-out: DIZ
Staphylococcus aureus [28] = test: Antibacterial activity against Staphylococcus aureus at 5 ug/ml by disc diffusion method; conditions: read-out: DIZ

solubility [3]: soluble
solubility [11]: soluble
solubility [14]: soluble
Compound: COc1cccc(C2C(Cl)C(=O)N2c2ccc(S(=O)(=O)Nc3cc(C)on3)cc2)c1O (configuration not stated)
zone of inhibition at 10 µg/mL (Pseudomonas aeruginosa [1]): 9 mm
zone of inhibition at 10 µg/mL (Proteus sp. [2]): 10 mm
zone of inhibition at 50 µg/mL (Escherichia coli [4]): 13 mm
zone of inhibition at 50 µg/mL (Proteus sp. [5]): 12 mm
zone of inhibition at 1 µg/mL (Pseudomonas aeruginosa [6]): 6 mm
zone of inhibition at 100 µg/mL (Escherichia coli [7]): 14 mm
zone of inhibition at 1 µg/mL (Escherichia coli [8]): 7 mm
zone of inhibition at 100 µg/mL (Pseudomonas aeruginosa [9]): 13 mm
zone of inhibition at 50 µg/mL (Pseudomonas aeruginosa [10]): 11 mm
zone of inhibition at 1 µg/mL (Proteus sp. [12]): 6 mm
zone of inhibition at 10 µg/mL (Escherichia coli [13]): 9 mm
zone of inhibition at 10 µg/mL (Staphylococcus aureus [15]): 9 mm
zone of inhibition at 100 µg/mL (Proteus sp. [16]): 12 mm
zone of inhibition at 100 µg/mL (Staphylococcus aureus [17]): 16 mm
zone of inhibition at 1 µg/mL (Staphylococcus aureus [18]): 7 mm
zone of inhibition at 50 µg/mL (Staphylococcus aureus [19]): 11 mm

solubility [3]: soluble
solubility [11]: soluble
solubility [14]: soluble
Compound: COc1cccc(C2C(Cl)C(=O)N2c2ccc(S(=O)(=O)Nc3nccs3)cc2)c1O (configuration not stated)
zone of inhibition at 10 µg/mL (Pseudomonas aeruginosa [1]): 6 mm
zone of inhibition at 10 µg/mL (Proteus sp. [2]): 7 mm
zone of inhibition at 50 µg/mL (Escherichia coli [4]): 12 mm
zone of inhibition at 50 µg/mL (Proteus sp. [5]): 8 mm
zone of inhibition at 100 µg/mL (Escherichia coli [7]): 13 mm
zone of inhibition at 1 µg/mL (Escherichia coli [8]): 6 mm
zone of inhibition at 100 µg/mL (Pseudomonas aeruginosa [9]): 11 mm
zone of inhibition at 50 µg/mL (Pseudomonas aeruginosa [10]): 9 mm
zone of inhibition at 10 µg/mL (Escherichia coli [13]): 8 mm
zone of inhibition at 10 µg/mL (Staphylococcus aureus [15]): 8 mm
zone of inhibition at 100 µg/mL (Proteus sp. [16]): 9 mm
zone of inhibition at 100 µg/mL (Staphylococcus aureus [17]): 16 mm
zone of inhibition at 1 µg/mL (Staphylococcus aureus [18]): 6 mm
zone of inhibition at 50 µg/mL (Staphylococcus aureus [19]): 12 mm

solubility [3]: soluble
solubility [11]: soluble
solubility [14]: soluble
Compound: COc1cccc(/C=N/c2ccc(S(=O)(=O)Nc3nccs3)cc2)c1O
zone of inhibition at 10 µg/mL (Pseudomonas aeruginosa [1]): 8 mm
zone of inhibition at 10 µg/mL (Proteus sp. [2]): 7 mm
zone of inhibition at 50 µg/mL (Escherichia coli [4]): 12 mm
zone of inhibition at 50 µg/mL (Proteus sp. [5]): 8 mm
zone of inhibition at 100 µg/mL (Escherichia coli [7]): 15 mm
zone of inhibition at 1 µg/mL (Escherichia coli [8]): 6 mm
zone of inhibition at 100 µg/mL (Pseudomonas aeruginosa [9]): 13 mm
zone of inhibition at 50 µg/mL (Pseudomonas aeruginosa [10]): 10 mm
zone of inhibition at 10 µg/mL (Escherichia coli [13]): 9 mm
zone of inhibition at 10 µg/mL (Staphylococcus aureus [15]): 9 mm
zone of inhibition at 100 µg/mL (Proteus sp. [16]): 9 mm
zone of inhibition at 100 µg/mL (Staphylococcus aureus [17]): 14 mm
zone of inhibition at 1 µg/mL (Staphylococcus aureus [18]): 6 mm
zone of inhibition at 50 µg/mL (Staphylococcus aureus [19]): 12 mm

Compound: Nc1ccc(S(=O)(=O)Nc2nccs2)cc1 [SULFATHIAZOLE]
zone of inhibition at 10 µg/mL (Pseudomonas aeruginosa [1]): 7 mm
zone of inhibition at 10 µg/mL (Proteus sp. [2]): 8 mm
zone of inhibition at 50 µg/mL (Escherichia coli [4]): 10 mm
zone of inhibition at 50 µg/mL (Proteus sp. [5]): 10 mm
zone of inhibition at 100 µg/mL (Escherichia coli [7]): 11 mm
zone of inhibition at 100 µg/mL (Pseudomonas aeruginosa [9]): 9 mm
zone of inhibition at 50 µg/mL (Pseudomonas aeruginosa [10]): 8 mm
zone of inhibition at 10 µg/mL (Escherichia coli [13]): 7 mm
zone of inhibition at 10 µg/mL (Staphylococcus aureus [15]): 10 mm
zone of inhibition at 100 µg/mL (Proteus sp. [16]): 11 mm
zone of inhibition at 100 µg/mL (Staphylococcus aureus [17]): 15 mm
zone of inhibition at 1 µg/mL (Staphylococcus aureus [18]): 6 mm
zone of inhibition at 50 µg/mL (Staphylococcus aureus [19]): 13 mm

Compound: Cc1cc(NS(=O)(=O)c2ccc(N)cc2)no1 [SULFAMETHOXAZOLE]
zone of inhibition at 10 µg/mL (Pseudomonas aeruginosa [1]): 7 mm
zone of inhibition at 10 µg/mL (Proteus sp. [2]): 7 mm
zone of inhibition at 50 µg/mL (Escherichia coli [4]): 10 mm
zone of inhibition at 50 µg/mL (Proteus sp. [5]): 8 mm
zone of inhibition at 100 µg/mL (Escherichia coli [7]): 12 mm
zone of inhibition at 100 µg/mL (Pseudomonas aeruginosa [9]): 10 mm
zone of inhibition at 50 µg/mL (Pseudomonas aeruginosa [10]): 8 mm
zone of inhibition at 10 µg/mL (Escherichia coli [13]): 8 mm
zone of inhibition at 10 µg/mL (Staphylococcus aureus [15]): 6 mm
zone of inhibition at 100 µg/mL (Proteus sp. [16]): 9 mm
zone of inhibition at 100 µg/mL (Staphylococcus aureus [17]): 9 mm
zone of inhibition at 50 µg/mL (Staphylococcus aureus [19]): 8 mm

Compound: CO[C@@H]1[C@@H](OC(N)=O)[C@@H](O)[C@H](Oc2ccc3c(O)c(NC(=O)c4ccc(O)c(CC=C(C)C)c4)c(=O)oc3c2C)OC1(C)C [NOVOBIOCIN]
zone of inhibition at 30 µg/mL (Pseudomonas aeruginosa [20]): 14 mm
zone of inhibition at 30 µg/mL (Escherichia coli [21]): 7 mm
zone of inhibition at 30 µg/mL (Staphylococcus aureus [22]): 24 mm
zone of inhibition at 30 µg/mL (Proteus sp. [23]): 20 mm

solubility [3]: soluble
solubility [11]: soluble
solubility [14]: soluble
Compound: COc1cccc(/C=N/c2ccc(S(=O)(=O)Nc3cc(C)on3)cc2)c1O
zone of inhibition at 10 µg/mL (Pseudomonas aeruginosa [1]): 10 mm
zone of inhibition at 10 µg/mL (Proteus sp. [2]): 11 mm
zone of inhibition at 50 µg/mL (Escherichia coli [4]): 11 mm
zone of inhibition at 50 µg/mL (Proteus sp. [5]): 14 mm
zone of inhibition at 1 µg/mL (Pseudomonas aeruginosa [6]): 6 mm
zone of inhibition at 100 µg/mL (Escherichia coli [7]): 14 mm
zone of inhibition at 1 µg/mL (Escherichia coli [8]): 6 mm
zone of inhibition at 100 µg/mL (Pseudomonas aeruginosa [9]): 15 mm
zone of inhibition at 50 µg/mL (Pseudomonas aeruginosa [10]): 11 mm
zone of inhibition at 1 µg/mL (Proteus sp. [12]): 6 mm
zone of inhibition at 10 µg/mL (Escherichia coli [13]): 8 mm
zone of inhibition at 10 µg/mL (Staphylococcus aureus [15]): 8 mm
zone of inhibition at 100 µg/mL (Proteus sp. [16]): 15 mm
zone of inhibition at 100 µg/mL (Staphylococcus aureus [17]): 12 mm
zone of inhibition at 1 µg/mL (Staphylococcus aureus [18]): 6 mm
zone of inhibition at 50 µg/mL (Staphylococcus aureus [19]): 10 mm

Compound: CC[C@H]1OC(=O)[C@H](C)[C@@H](O[C@H]2C[C@@](C)(OC)[C@@H](O)[C@H](C)O2)[C@H](C)[C@@H](O[C@@H]2O[C@H](C)C[C@H](N(C)C)[C@H]2O)[C@](C)(OC)C[C@@H](C)C(=O)[C@H](C)[C@@H](O)[C@]1(C)O [CLARITHROMYCIN]
zone of inhibition at 15 µg/mL (Escherichia coli [24]): 16 mm
zone of inhibition at 15 µg/mL (Staphylococcus aureus [25]): 23 mm

Compound: O=C(O)c1cn(C2CC2)c2cc(N3CCNCC3)c(F)cc2c1=O [CIPROFLOXACIN]
zone of inhibition at 5 µg/mL (Pseudomonas aeruginosa [26]): 17 mm
zone of inhibition at 5 µg/mL (Escherichia coli [27]): 28 mm
zone of inhibition at 5 µg/mL (Staphylococcus aureus [28]): 20 mm

Compound: C[C@H]1[C@H](NC(=O)/C(=N\OC(C)(C)C(=O)O)c2csc(N)n2)C(=O)N1S(=O)(=O)O [AZTREONAM]
zone of inhibition at 30 µg/mL (Proteus sp. [23]): 24 mm
